Patent publication US11458123B2 (Arvinas, Inc., priority 2016, dated 2022)

system: tau protein; assay: Tau protein in vitro degradation assay (Western blot, Tau-13 antibody); format: cell-based, human; conditions: SK-N-SH cells; 72 hours of incubation; tested at 300 nM, 100 nM, 33 nM and 11 nM; Western blot, Tau-13 antibody
Procedure, shortened: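 Tau degradation read by Tau-13 Western blot (detects all human tau forms) of SDS-PAGE-resolved lysates from SK-N-SH cells. Cells were plated at least 18 h before 72 h exposure to PROTACs at either 1000/300/100 nM or 300/100/33/11 nM.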

| SMILES | Degradation activity* (highest amount of degradation observed at any dosage; tau protein remaining) |
| --- | --- |
| Cn1c2ccncc2c2ccc(-c3cnc(O[C@H]4C[C@H](Oc5ccc(C#CCN6CC(Oc7ccc8c(c7)C(=O)N(C7CCC(=O)NC7=O)C8=O)C6)nc5)C4)c(C(F)(F)F)c3)cc21 (some centres unmarked) [Compound 142, 2-(2,6-dioxopiperidin-3-yl)-5-((1-(3-(5-((1r,3r)-3-((5-(5-methyl-5H-pyrido[4,3-b]indol-7-yl)-3-(trifluoromethyl)pyridin-2-yl)oxy)cyclobutoxy)pyridin-2-yl)prop-2-yn-1-yl)azetidin-3-yl)oxy)isoindoline-1,3-dione] | C (>80% tau protein remaining after 72 hours of incubation with the test compound) |
| Cn1c2ccncc2c2ccc(-c3ccc(OCCOCCOCCOCCOCCOc4ccc5c(c4)C(=O)N(C4CCC(=O)NC4=O)C5=O)nc3C(F)(F)F)cc21 (centres unmarked) [Compound 143, 2-(2,6-dioxopiperidin-3-yl)-5-((14-((5-(5-methyl-5H-pyrido[4,3-b]indol-7-yl)-6-(trifluoromethyl)pyridin-2-yl)oxy)-3,6,9,12-tetraoxatetradecyl)oxy)isoindoline-1,3-dione] | B (≤80% and >50% tau protein remaining after 72 hours of incubation with the test compound) |
| Cn1c2ccncc2c2ccc(-c3ccc(O[C@H]4C[C@@H](Oc5ccc(C#CCCCCOc6ccc7c(c6)C(=O)N(C6CCC(=O)NC6=O)C7=O)cn5)C4)nc3)cc21 (some centres unmarked) [Compound 144, 2-(2,6-dioxopiperidin-3-yl)-5-(6-(6-((1s,3s)-3-(5-(5-methyl-5H-pyrido[4,3-b]indol-7-yl)pyridin-2-yloxy)cyclobutoxy)pyridin-3-yl)hex-5-ynyloxy)isoindoline-1,3-dione] | C (>80% tau protein remaining after 72 hours of incubation with the test compound) |
| Cn1c2ccncc2c2ccc(-c3ccc(O[C@H]4C[C@@H](Oc5ccc(CCCCCCOc6ccc7c(c6)C(=O)N(C6CCC(=O)NC6=O)C7=O)cn5)C4)nc3)cc21 (some centres unmarked) [Compound 145, 2-(2,6-dioxopiperidin-3-yl)-5-(6-(6-((1s,3s)-3-(5-(5-methyl-5H-pyrido[4,3-b]indol-7-yl)pyridin-2-yloxy)cyclobutoxy)pyridin-3-yl)hexyloxy)isoindoline-1,3-dione] | C (>80% tau protein remaining after 72 hours of incubation with the test compound) |
| Cn1c2ccncc2c2ccc(-c3ccc(OCCCOc4ccc(C#CCCCCOc5ccc6c(c5)C(=O)N(C5CCC(=O)NC5=O)C6=O)cn4)nc3)cc21 (centres unmarked) [Compound 146, 2-(2,6-dioxopiperidin-3-yl)-5-((6-(6-(3-((5-(5-methyl-5H-pyrido[4,3-b]indol-7-yl)pyridin-2-yl)oxy)propoxy)pyridin-3-yl)hex-5-yn-1-yl)oxy)isoindoline-1,3-dione] | C (>80% tau protein remaining after 72 hours of incubation with the test compound) |
| Cn1c2ccncc2c2ccc(-c3ccc(O[C@H]4C[C@H](Oc5ccc(CCCCCCOc6ccc7c(c6)C(=O)N(C6CCC(=O)NC6=O)C7=O)cc5)C4)nc3)cc21 (some centres unmarked) [Compound 147, 2-(2,6-dioxopiperidin-3-yl)-5-((6-(4-((1r,3r)-3-((5-(5-methyl-5H-pyrido[4,3-b]indol-7-yl)pyridin-2-yl)oxy)cyclobutoxy)phenyl)hexyl)oxy)isoindoline-1,3-dione] | C (>80% tau protein remaining after 72 hours of incubation with the test compound) |
| O=C1CCC(N2C(=O)c3ccc(N4CC(OCCCOCCCO[C@H]5C[C@H](Oc6ncc(-c7ccc8c(c7)[nH]c7ccncc78)cc6C(F)(F)F)C5)C4)cc3C2=O)C(=O)N1 (some centres unmarked) [Compound 148, 5-(3-(3-(3-((1r,3r)-3-((5-(5H-pyrido[4,3-b]indol-7-yl)-3-(trifluoromethyl)pyridin-2-yl)oxy)cyclobutoxy)propoxy)propoxy)azetidin-1-yl)-2-(2,6-dioxopiperidin-3-yl)isoindoline-1,3-dione] | B (≤80% and >50% tau protein remaining after 72 hours of incubation with the test compound) |
| Cn1c2ccncc2c2ccc(-c3ccc(O[C@H]4C[C@H](Oc5ccc(CCCCCCOc6ccc7c(c6)C(=O)N(C6CCC(=O)NC6=O)C7=O)nn5)C4)nc3)cc21 (some centres unmarked) [Compound 149, 2-(2,6-dioxopiperidin-3-yl)-5-((6-(6-((1r,3r)-3-((5-(5-methyl-5H-pyrido[4,3-b]indol-7-yl)pyridin-2-yl)oxy)cyclobutoxy)pyridazin-3-yl)hexyl)oxy)isoindoline-1,3-dione] | B (≤80% and >50% tau protein remaining after 72 hours of incubation with the test compound) |
| Cn1c2ccncc2c2ccc(-c3ccc(O[C@H]4C[C@H](OCCCC(F)(F)CN5CC6(C5)CN(c5ccc7c(c5)C(=O)N(C5CCC(=O)NC5=O)C7=O)C6)C4)nc3)cc21 (some centres unmarked) [Compound 150, 5-(6-(2,2-difluoro-5-((1r,3r)-3-((5-(5-methyl-5H-pyrido[4,3-b]indol-7-yl)pyridin-2-yl)oxy)cyclobutoxy)pentyl)-2,6-diazaspiro[3.3]heptan-2-yl)-2-(2,6-dioxopiperidin-3-yl)isoindoline-1,3-dione] | B (≤80% and >50% tau protein remaining after 72 hours of incubation with the test compound) |
| Cn1c2ccncc2c2ccc(-c3ccc(O[C@H]4C[C@H](Oc5cnc(CCCCCCOc6ccc7c(c6)C(=O)N(C6CCC(=O)NC6=O)C7=O)nc5)C4)nc3)cc21 (some centres unmarked) [Compound 151, 2-(2,6-dioxopiperidin-3-yl)-5-((6-(5-((1r,3r)-3-((5-(5-methyl-5H-pyrido[4,3-b]indol-7-yl)pyridin-2-yl)oxy)cyclobutoxy)pyrimidin-2-yl)hexyl)oxy)isoindoline-1,3-dione] | B (≤80% and >50% tau protein remaining after 72 hours of incubation with the test compound) |
| Cn1c2ccncc2c2ccc(-c3ccc(O[C@H]4C[C@H](Oc5ccc(C#CCN6CC(Oc7ccc8c(c7)C(=O)N(C7CCC(=O)NC7=O)C8=O)C6)nc5)C4)nc3)cc21 (some centres unmarked) [Compound 152, 2-(2,6-dioxopiperidin-3-yl)-5-((1-(3-(5-((1r,3r)-3-((5-(5-methyl-5H-pyrido[4,3-b]indol-7-yl)pyridin-2-yl)oxy)cyclobutoxy)pyridin-2-yl)prop-2-yn-1-yl)azetidin-3-yl)oxy)isoindoline-1,3-dione] | A (≤50% tau protein remaining after 72 hours of incubation with the test compound) |
| Cn1c2ccncc2c2ccc(-c3ccc(O[C@H]4C[C@H](OCCCCCOC(CC5CN(c6ccc7c(c6)C(=O)N(C6CCC(=O)NC6=O)C7=O)C5)C(F)(F)F)C4)nc3)cc21 (some centres unmarked) [Compound 153, 2-(2,6-dioxopiperidin-3-yl)-5-(3-(3,3,3-trifluoro-2-((5-((1r,3r)-3-((5-(5-methyl-5H-pyrido[4,3-b]indol-7-yl)pyridin-2-yl)oxy)cyclobutoxy)pentyl)oxy)propyl)azetidin-1-yl)isoindoline-1,3-dione] | B (≤80% and >50% tau protein remaining after 72 hours of incubation with the test compound) |
| Cn1c2ccncc2c2ccc(-c3ccc(O[C@H]4C[C@H](OCCCCCCOC(C5CN(c6ccc7c(c6)C(=O)N(C6CCC(=O)NC6=O)C7=O)C5)C(F)(F)F)C4)nc3)cc21 (some centres unmarked) [Compound 154, 2-(2,6-dioxopiperidin-3-yl)-5-(3-(2,2,2-trifluoro-1-((6-((1r,3r)-3-((5-(5-methyl-5H-pyrido[4,3-b]indol-7-yl)pyridin-2-yl)oxy)cyclobutoxy)hexyl)oxy)ethyl)azetidin-1-yl)isoindoline-1,3-dione] | C (>80% tau protein remaining after 72 hours of incubation with the test compound) |
| Cn1c2ccncc2c2ccc(-c3ccc(O[C@H]4C[C@H](OCCOc5ccc(OC6CN(c7ccc8c(c7)C(=O)N(C7CCC(=O)NC7=O)C8=O)C6)nc5)C4)nc3)cc21 (some centres unmarked) [Compound 155, 2-(2,6-dioxopiperidin-3-yl)-5-(3-((5-(2-((1r,3r)-3-((5-(5-methyl-5H-pyrido[4,3-b]indol-7-yl)pyridin-2-yl)oxy)cyclobutoxy)ethoxy)pyridin-2-yl)oxy)azetidin-1-yl)isoindoline-1,3-dione] | C (>80% tau protein remaining after 72 hours of incubation with the test compound) |
| Cn1c2ccncc2c2ccc(-c3ccc(O[C@H]4C[C@H](Oc5ccc(CCCOC6CN(c7ccc8c(c7)C(=O)N(C7CCC(=O)NC7=O)C8=O)C6)nc5)C4)nc3)cc21 (some centres unmarked) [Compound 156, 2-(2,6-dioxopiperidin-3-yl)-5-(3-(3-(5-((1r,3r)-3-((5-(5-methyl-5H-pyrido[4,3-b]indol-7-yl)pyridin-2-yl)oxy)cyclobutoxy)pyridin-2-yl)propoxy)azetidin-1-yl)isoindoline-1,3-dione] | C (>80% tau protein remaining after 72 hours of incubation with the test compound) |
| Cn1c2ccncc2c2ccc(-c3ccc(O[C@H]4C[C@H](C(=O)N5CC6(CC(OCCCCOc7ccc8c(c7)C(=O)N(C7CCC(=O)NC7=O)C8=O)C6)C5)C4)nc3)cc21 (some centres unmarked) [Compound 157, 2-(2,6-dioxopiperidin-3-yl)-5-(4-((2-((1r,3r)-3-((5-(5-methyl-5H-pyrido[4,3-b]indol-7-yl)pyridin-2-yl)oxy)cyclobutane-1-carbonyl)-2-azaspiro[3.3]heptan-6-yl)oxy)butoxy)isoindoline-1,3-dione] | C (>80% tau protein remaining after 72 hours of incubation with the test compound) |
| Cn1c2ccncc2c2ccc(-c3ccc(O[C@H]4C[C@H](OC5CCN(c6cc(OCCOc7ccc8c(c7)C(=O)N(C7CCC(=O)NC7=O)C8=O)cnn6)CC5)C4)nc3)cc21 (some centres unmarked) [Compound 158, 2-(2,6-dioxopiperidin-3-yl)-5-(2-((6-(4-((1r,3r)-3-((5-(5-methyl-5H-pyrido[4,3-b]indol-7-yl)pyridin-2-yl)oxy)cyclobutoxy)piperidin-1-yl)pyridazin-4-yl)oxy)ethoxy)isoindoline-1,3-dione] | C (>80% tau protein remaining after 72 hours of incubation with the test compound) |
